For data set [1], the system named is arteriolar thrombus disaggregation. Put plainly: thrombolytic action: arteriolar thrombus disaggregation time after electrical vascular damage in the hamster. Format: in vivo, hamster (Mesocricetus auratus). The settings on record: oral; for thrombolytic activity (in words): 10 days. The protocol:
Through a different in vivo experimental model also the effect on thrombus formation and disaggregation was evaluated in the hamster, following vascular damage induced by electrical stimulation (thrombolytic action).
(§1) In the course of a typical experiment, male hamsters of the Mesocricetus auratus genus, weighing 95-115 g, were acclimatized for 1 week in the laboratory before starting the study, then semi-chronically treated by oral route, for 10 consecutive days with the products under examination. More precisely, the animals were divided into 4 groups: group I received the vehicle alone, group II received DHA ethyl ester 100 mg/kg (equivalent to DHA 92 mg/kg), group III and IV were given DHA 50 mg/kg in the form of ethanolamine salt (59.3 mg/kg) and choline salt (65.7 mg/kg respectively).One hour following the last dose the animals were anaesthetized with sodium pentobarbitone (90 mg/kg, i.p.), the cheek pouch everted with a cotton wool bud and the upper layer and the underlying a vascular connective tissue removed with ophthalmic scissors to expose the lower vascular layer which was then bathed with saline solution and examined under a Leitz Dialux microscope (magnification×250).
For the evaluation of the thrombolytic activity a micropipette was filled with 1.0M potassium chloride, applied to an arteriole of diameter 40-60μ and connected to a reference electrode placed in the animal's mouth. A negative potential was applied for 5 seconds using a Grass S48 stimulator to produce a current of 20-30 μA. A second micropipette containing 10^-2 M ADP was applied to the site of electrical damage and a negative potential applied, for 3 seconds. After the current was switched off, the time taken for the resultant thrombus to form and to disaggregate (about 40 seconds) was recorded using a stopwatch. The process of ADP stimulation of the arteriole damaged site was repeated several times and the mean was recorded of the values obtained over one hour and compared with that of the control animals.
The percentage change in the persistence of the thrombus adhering to the damaged site in the treated and untreated animals is therefore an index of the thrombolytic activity of the drug (Table 3).

The test system of data set [2] is erythrocyte phospholipids. Put plainly: DHA content of erythrocyte phospholipids in healthy volunteers after 3 weeks oral treatment. Format: in vivo. The settings on record: 1 g of DHA daily for 3 weeks. The protocol: Considering that the phospholipid class of the erythrocyte membrane, along with the degree of unsaturation of the acyl chains, does condition red cell deformability and blood viscosity, it has been conducted a study to ascertain the effect of the salts in question on erythrocyte phospholipid composition, which we describe hereunder in illustration. 8 healthy volunteers were then selected and divided into 4 groups which were treated by oral route for 3 weeks with a daily quantity of DHA 1.0 g in the form of ethyl ester (1.1 g), sodium salt (1.1 g), choline salt (1.3 g) and ethanolamine salt (1.2 g). Before and after treatment samples of venous blood were collected and sodium citrate added, then the erythrocytes were isolated, washed for 3 times with saline solution (0.15M NaCl, pH 7.4) at 0° and again suspended in saline solution. 1-ml samples from the red cell suspensions were treated with 5 ml of methanol for 10 minutes then with 5 ml of chloroform containing 2 mg/100 ml of the antioxidant 2,6-di-tert.butyl-4-methyl-phenol (BHT). The organic solvents originating from 3 extractions were evaporated to dryness and the residue, formed by the erythrocyte phospholipids, was subjected to bidimensional chromatography according to Turner J. D. and Rouser G., Anal. Biochem. (Part 1--Erythrocyte lipids), 38, 423, 1970 to separate the different phospholipid classes: silica gel 60H (90 g, Merck) plus Fluorisil (7.2 g, BDH Chemicals) plates were used; the solvent systems consisted of chloroform:methanol: 25% ammonia:water (90:54:5.5:5.5) and chloroform:methanol:acetone:acetic acid:water (60:20:80:20:10). The various classes were identified against standard phospolipids (Sigma Chemical). A sample of total phospholipids and the various stains isolated were treated with 1.5 ml of boron trifluoride-methanol for 1 h at 65° C. under nitrogen, to prepare the methyl esters of the acids contained in the phospholipids to undergo gas-chromatography. To this end a Hewlet-Packard 5890 gas-chromatograph was used, fitted with a ionisation flame detector and with an HPl column 25 m in length and 0.31 mm in int. diameter; elium was used as the carrier gas, the injection port temperature was 320° C. and the detector temperature 340° C. The chamber temperature was programmed at 170° C. for 1 min., then increased by 4°°C./min up to 250° C. and kept at this temperature for 15 minutes.

Data set [3] relates to thrombus growth rate induced by ADP in the hamster microvascular system. The data set is described as follows: in vivo antithrombotic action: growth rate of thrombus induced by ADP in hamster microvascular system. Details: species or system hamster (Mesocricetus auratus). The settings on record: oral; for antithrombotic activity (in words): 10 days.
Text: Considered however that this action is not fully indicative of the possible therapeutic effects of a drug, we measured the in vivo effect of the new salts in extremely significant tests, by determining for instance, their effect on growth rate of a thrombus induced by a known aggregatory agent (adenosine diphosphate; ADP) in the hamster microvascular system (in vivo antithrombotic action).
as §1
Evaluation of the antithrombotic activity requires measuring the growth rate of a thrombus (white body) in the microcirculation induced by the iontophoresis of ADP from a micropipette through the vessel wall. A micropipette of diameter 12μ was filled with 10^-2 M solution of ADP connected with a silver/silver chloride reference electrode placed in the animal's mouth and applied to a venule of diameter 16-40μ. By applying a negative potential to the micropipette, ADP (2×10^-14moles per second) was injected which caused the formation of a white body (platelet thrombus) gradually growing from the wall of the venule. The growth rate of the thrombus was determined by the time taken for 30%, 50% and 90% of the white body to form, 100% referring to total occlusion of the vessel with stasis. When the current was switched off, the white body rapidly embolised and no new white bodies formed until the current was re-applied. Inhibition of thrombus growth rate was calculated by comparing measurements in treated animals with those obtained in the control group (Table 2).

A short description of a further data set: water solubility. The class given is physicochemical.
[4] abbreviates: maximum, equiv. to DHA 50 mg/kg × 10 days.

Structures can show the parent of a compound that is named as a salt.

As for `CC/C=C\C/C=C\C/C=C\C/C=C\C/C=C\C/C=C\CCC(=O)O` [DHA choline salt], the “Percentage reduction, as compared to the controls, of arteriolar thrombus disaggregation time” value turned out to be 31.6% in data set [1] (60-70 minutes post-dose, equiv. to DHA 50 mg/kg × 10 days); 32.8% in data set [1] (70-80 minutes post-dose, equiv. to DHA 50 mg/kg × 10 days); 35.4% in data set [1] (80-90 minutes post-dose, equiv. to DHA 50 mg/kg × 10 days); 37.7% in data set [1] (90-100 minutes post-dose, equiv. to DHA 50 mg/kg × 10 days); 28.6% in data set [1] (100-110 minutes post-dose, equiv. to DHA 50 mg/kg × 10 days); 29.1% in data set [1] (110-120 minutes post-dose, equiv. to DHA 50 mg/kg × 10 days). Moreover, the “reduction in disaggregation time” value in data set [1] (setting [4]) is reported as 37-38%. The “thrombolytic activity (in words)” value in data set [1] was “definitely more active, if given at the same doses”. Moreover, the “Percent increase in DHA content of erythrocyte phospholipids as compared to baseline values: Phosphatidylcholine” value (shortened to “Percent increase … Phosphatidylcholine”) in data set [2] came out at 146%. Further, in data set [2], the “Percent increase in DHA content of erythrocyte phospholipids as compared to baseline values: Phosphatidylethanolamine” value (“Percent increase … Phosphatidylethanolamine” below) is on record as 38%. For the same compound, the “Percent increase in DHA content of erythrocyte phospholipids as compared to baseline values: Total phospholipids” value (shortened to “Percent increase … Total phospholipids”) in data set [2] was 102%. Also, the “Percentage reduction, as compared to the controls, of thrombus growth rate induced by ADP” value (“Percentage reduction … by ADP” below) is listed as 15.6% in data set [3] (60 minutes post-dose, equiv. to DHA 50 mg/kg × 10 days); 35.4% in data set [3] (70 minutes post-dose, equiv. to DHA 50 mg/kg × 10 days); 28.3% in data set [3] (80 minutes post-dose, equiv. to DHA 50 mg/kg × 10 days); 34.2% in data set [3] (90 minutes post-dose, equiv. to DHA 50 mg/kg × 10 days); 20.8% in data set [3] (100 minutes post-dose, equiv. to DHA 50 mg/kg × 10 days); 20.2% in data set [3] (110 minutes post-dose, equiv. to DHA 50 mg/kg × 10 days). In data set [3] (120 minutes post-dose, equiv. to DHA 50 mg/kg × 10 days), the “Percentage reduction … by ADP” value is listed as 24.7%. Moreover, the “percentage reduction in ADP-induced thrombus growth rate, of the order of max.” value in data set [3] (setting [4]) is on record as 33-34%. Also, the “antithrombotic activity (in words)” value in data set [3] is reported as “highly active”.

With `CC/C=C\C/C=C\C/C=C\C/C=C\C/C=C\C/C=C\CCC(=O)OCC` [DHA ethyl ester, reference compound], the “Percentage reduction, as compared to the controls, of arteriolar thrombus disaggregation time” value in data set [1] (60-70 minutes post-dose, 100 mg/kg × 10 days) was 21.4%; in data set [1] (70-80 minutes post-dose, 100 mg/kg × 10 days), 30.5%; in data set [1] (80-90 minutes post-dose, 100 mg/kg × 10 days), 36.2%; in data set [1] (90-100 minutes post-dose, 100 mg/kg × 10 days), 32.9%; in data set [1] (100-110 minutes post-dose, 100 mg/kg × 10 days) it was 27.8%; in data set [1] (110-120 minutes post-dose, 100 mg/kg × 10 days), 25.9%. Besides, the “percentage reduction in arteriolar thrombus disaggregation time” value in data set [1] (maximum, 100 mg/kg × 10 days) is on record as 36.2%. Besides, the “thrombolytic activity (in words)” value in data set [1] is “highly active”. The “Percent increase … Phosphatidylcholine” value in data set [2] came to 77%. For the same compound, in data set [2], the “Percent increase … Phosphatidylethanolamine” value worked out at 10%. Besides, the “Percent increase … Total phospholipids” value in data set [2] was found to be 56%. Further, the “Percentage reduction … by ADP” value in data set [3] (60 minutes post-dose, 100 mg/kg × 10 days) came to 5.5%; in data set [3] (70 minutes post-dose, 100 mg/kg × 10 days), 12.5%; in data set [3] (80 minutes post-dose, 100 mg/kg × 10 days), 26.3%; in data set [3] (90 minutes post-dose, 100 mg/kg × 10 days) it was 17.4%; in data set [3] (100 minutes post-dose, 100 mg/kg × 10 days) it was 15.1%; in data set [3] (110 minutes post-dose, 100 mg/kg × 10 days), 8.7%. Moreover, the “Percentage reduction … by ADP” value in data set [3] (120 minutes post-dose, 100 mg/kg × 10 days) is on record as 14.9%. Moreover, the “antithrombotic activity (in words)” value in data set [3] is reported as “moderately active”.

Regarding `CC/C=C\C/C=C\C/C=C\C/C=C\C/C=C\C/C=C\CCC(=O)O` [DHA sodium salt, reference compound], in data set [2] (sodium salt), the “Percent increase … Phosphatidylcholine” value amounted to 93%, the “Percent increase … Phosphatidylethanolamine” value amounted to 25% and the “Percent increase … Total phospholipids” value is reported as 75%.

In the case of `CC/C=C\C/C=C\C/C=C\C/C=C\C/C=C\CCCC(=O)O` [EPA choline salt], in “water solubility”, the water solubility entry is given as “water-soiuble”.

Regarding `CC/C=C\C/C=C\C/C=C\C/C=C\C/C=C\CCCC(=O)O` [EPA ethanolamine salt], the water solubility entry in the data set “water solubility” is given as “highly water-soluble”.

Source of the values: US5869714A, “Salts of omega-3-polyunsaturated fatty acids and pharmaceutical formulations containing them” (Prospa B.V., priority 1994, dated 1999).
